Measured values published in patent US6316498A, “Fluorine-containing amino acid derivatives” (Taisho Pharmaceutical Co., Ltd., priority 1998, dated 2001).

System: Methamphetamine-induced Hyperactivity in Mice
Assay: Effect on Methamphetamine-induced Hyperactivity in Mice
Type: in vivo, male ICR-strain mice
Details: for Count (30-minute quantity of movement): 1 mg/kg methamphetamine; for Inhibition rate: vs group given solvent only; for ED50: Mus musculus, po, methamphetamine-induced hyperactivity; for inhibition of methamphetamine-induced hyperactivity (in words): ANOVA P<0.05, LY354740 except 0.01 mg/kg group
Experimental: (Effect on Methamphetamine-induced Hyperactivity in Mice)
11-12 male ICR-strain mice (body weights 23-32 g, Charles River Japan Inc.) were used for a group. The mice were housed in a transparent cylindrical measurement cage made of vinyl chloride (diameter 30 cm, height 30 cm) and were acclimated to their environment for 90 minutes.
Next, each of the compounds listed in Table 2 was orally administered to the mice, and 30 minutes later, 1 mg/kg methamphetamine was administered […]. 15 minutes later, the 30-minute quantity of movement of the mice was measured by a count, using an automatic movement measurement device (SCANET/SV-10, from Toyo Sangyo Co., Ltd.). Each listed compound was used suspended in a solvent consisting of 0.3% Tween 80 physiological saline solution.
The inhibition rate was determined from the count of the group of mice given solvent only and the count of the group of mice given each prescribed dosage of the compounds listed in Table 2, and the ED50 value was calculated. Statistical processing was done by analysis of variance (ANOVA), followed by Dunnet's test.

SMILES	Count (30-minute quantity of movement) (0.01 mg/kg p.o.)	Inhibition rate (0.01 mg/kg p.o.) [%]	Count (30-minute quantity of movement) (0.1 mg/kg p.o.)	Inhibition rate (0.1 mg/kg p.o.) [%]	Count (30-minute quantity of movement) (1 mg/kg p.o.)	Inhibition rate (1 mg/kg p.o.) [%]	ED50 [mg/kg]	inhibition of methamphetamine-induced hyperactivity (in words) (p.o.)	inhibition effect relative to LY354740 for methamphetamine-induced hyperactivity (p.o., vs LY354740, from ED50 values) [times]	Count (30-minute quantity of movement) (10 mg/kg p.o.)	Inhibition rate (10 mg/kg p.o.) [%]
N[C@]1(C(=O)O)[C@H]2[C@@H](C[C@@H]1F)[C@@H]2C(=O)O [Comp. 1, (1S,2S,3S,5R,6S)-2-amino-3-fluorobicyclo[3.1.0]hexane-2,6-dicarboxylic acid]	9512 ± 3005	19.6	4291 ± 1283	63.7	2353 ± 733	80.1	0.05	A similar effect is also seen	17.4	–	–
N[C@@]1(C(=O)O)CC[C@H]2[C@H](C(=O)O)[C@H]21 [LY354740, (+) - (1S, 2S, 5R, 6S)-2-aminobicyclo[3.1.0]hexane-2,6-dicarboxylic acid]	12000 ± 3216	-18.8	6975 ± 1489	30.9	4534 ± 1116	55.1	0.87	the methamphetamine-induced hyperactivity was inhibited in a dose-dependent manner	–	3704 ± 1285	63.3
